From patent publication US20040102364A1, “Backbone cyclized radiolabelled somatostatin analogs” (priority 2001, published 2004)
Read-outs that look alike come from different tables or passages of the source.

What was measured:
SST-R2 = SST-R2 (Homo sapiens, UniProt P30874); assay: Inhibition of SRIF binding to SST-R2 (species not stated); settings: for inhibition at 10 pM: read-out: IC50 Screen SRIF Inhibited (%) 0.01 nM; for inhibition at 0.0001 µM: read-out: IC50 Screen SRIF Inhibited (%) 0.1 nM; for inhibition at 0.001 µM: read-out: IC50 Screen SRIF Inhibited (%) 1 nM
Protocol: The SST analogs were tested for their potency in inhibition of the binding of ^125I-Tyr^11-SRIF (based on the method described by Raynor et. al., Molecular Pharmacology 43: 838, 1993) to membrane preparations expressing the transmembranal SST receptors (SST-R1, 2, 3, 4 or 5). The receptor preparations used for these tests were either from the cloned human receptors selectively and stably expressed in Chinese Hamster Ovary (CHO) cells or from cell lines naturally expressing the SST-Rs. […] The binding reactions were filtered, the filters were washed and the bound radioactivity was counted in β counter after addition of scintillation solution. […]

human cloned SST-R2 = target: T1, human cloned SST-R2 (Homo sapiens, UniProt P30874); assay: Inhibition of 125I-Tyr11-SRIF binding to cloned human SST-R2 membranes (CHO cells)
T1 construct: expressed in transfected cells; host or cells: CHO cells
Protocol: The SST analogs were tested for their potency in inhibition of the binding of ^125I-Tyr^11-SRIF (based on the method described by Raynor et. al., Molecular Pharmacology 43: 838, 1993) to membrane preparations expressing the transmembranal SST receptors (SST-R1, 2, 3, 4 or 5). The receptor preparations used for these tests were either from the cloned human receptors selectively and stably expressed in Chinese Hamster Ovary (CHO) cells or from cell lines naturally expressing the SST-Rs. […] The binding reactions were filtered, the filters were washed and the bound radioactivity was counted in β counter after addition of scintillation solution.

[1] = Quick Screen, 10 nM, SST-R2, read-out: Quick Screen SRIF Inhibited (%) 10 nM
[2] = Quick Screen, 100 nM, SST-R2, read-out: Quick Screen SRIF Inhibited (%) 100 nM
[3] = read-out: IC50 Screen SRIF Inhibited (%) 10 nM
[4] = read-out: IC50 Screen SRIF Inhibited (%) 100 nM
[5] = human cloned receptor, read-out: Concentration (nM) of SST analogs to inhibit SRIF binding by 50%, SST-R 2

Chain of SST-R2 (P30874 whole entry): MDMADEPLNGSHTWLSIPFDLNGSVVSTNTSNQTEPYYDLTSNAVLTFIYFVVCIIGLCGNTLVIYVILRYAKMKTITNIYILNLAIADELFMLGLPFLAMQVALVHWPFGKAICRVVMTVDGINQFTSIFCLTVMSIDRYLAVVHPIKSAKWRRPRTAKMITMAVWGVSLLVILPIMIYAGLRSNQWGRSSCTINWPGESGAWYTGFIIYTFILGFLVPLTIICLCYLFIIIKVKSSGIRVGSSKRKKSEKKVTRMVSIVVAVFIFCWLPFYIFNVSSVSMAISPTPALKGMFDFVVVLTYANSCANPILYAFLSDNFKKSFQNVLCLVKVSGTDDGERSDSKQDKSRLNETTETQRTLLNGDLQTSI
T1 sequence (P30874 whole entry): as above

In-DTPA-5-aminopentanoic acid-Dab*-Phe-Trp-(D)Trp-Lys-Thr-Phe-GlyC3*-NH2 [PTR 3343]
IC50 Screen SRIF Inhibited (%) 0.01 nM (SST-R2; IC50 Screen, 0.01 nM, SST-R2): −16% | IC50 Screen SRIF Inhibited (%) 0.1 nM (SST-R2; IC50 Screen, 0.1 nM, SST-R2): −3.8% | IC50 Screen SRIF Inhibited (%) 1 nM (SST-R2; IC50 Screen, 1 nM, SST-R2): 10% | IC50 Screen SRIF Inhibited (%) 10 nM (SST-R2; IC50 Screen, 10 nM, SST-R2): 44% | IC50 Screen SRIF Inhibited (%) 100 nM (SST-R2; IC50 Screen, 100 nM, SST-R2): 76% | Quick Screen SRIF Inhibited (%) 10 nM (SST-R2; Quick Screen, 10 nM, SST-R2): 37% | Quick Screen SRIF Inhibited (%) 100 nM (SST-R2; Quick Screen, 100 nM, SST-R2): 79%

In-DTPA-Gly-Phe(C3**)-Cys*-Phe-(D)Trp-Lys-Thr-Cys*-Phe(N3**)-NH2 [PTR 3347]
SRIF Inhibited (%) 10 nM (SST-R2; 10 nM, SST-R2): 38% | SRIF Inhibited (%) 100 nM (SST-R2; 100 nM, SST-R2): 51%

C[C@@H](O)[C@@H]1NC(=O)[C@H](CCCCN)NC(=O)[C@@H](Cc2c[nH]c3ccccc23)NC(=O)[C@H](Cc2c[nH]c3ccccc23)NC(=O)[C@H](Cc2ccccc2)NC(=O)[C@@H](NC(=O)CN(CCN(CCN(CC(=O)O)CC(=O)O)CC(=O)O)CC(=O)O)CCNC(=O)CCCN(CC(N)=O)C(=O)[C@H](Cc2ccccc2)NC1=O [PTR 3337, In-DTPA-Dab*-Phe-Trp-(D)Trp-Lys-Thr-Phe-GlyC3*-NH2]
inhibition at 0.01 µM (SST-R2; [1]): 53% | inhibition at 0.1 µM (SST-R2; [2]): 87% | inhibition at 10 pM (SST-R2): -8.5% | inhibition at 0.0001 µM (SST-R2): 10% | inhibition at 0.001 µM (SST-R2): 37% | inhibition at 0.01 µM (SST-R2; [3]): 69% | inhibition at 0.1 µM (SST-R2; [4]): 89%

In-DTPA-5-aminopentanoic acid-Phe(C3**)-Cys*-Phe-(D)Trp-Lys-Thr-Cys*-Phe(N3**)-NH2 [PTR 3353]
SRIF Inhibited (%) 10 nM (SST-R2; 10 nM, SST-R2): 14% | SRIF Inhibited (%) 100 nM (SST-R2; 100 nM, SST-R2): 59%

In-DTPA-b-Ala-Phe(C3**)-Cys*-Phe-(D)Trp-Lys-Thr-Cys*-Phe(N3**)-NH2 [PTR 3349]
SRIF Inhibited (%) 10 nM (SST-R2; 10 nM, SST-R2): 20% | SRIF Inhibited (%) 100 nM (SST-R2; 100 nM, SST-R2): 54%

ReO-MA-Dpr(Gly)-Dab*-Phe-Trp-(D)Trp-Lys-Thr-Phe-GlyC3*-NH2 [PTR 3395]
IC50 (human cloned SST-R2; [5]): 1.14 nM

C[C@@H](O)[C@@H]1NC(=O)[C@H](CCCCN)NC(=O)[C@@H](Cc2c[nH]c3ccccc23)NC(=O)[C@H](Cc2c[nH]c3ccccc23)NC(=O)[C@H](Cc2ccccc2)NC(=O)[C@@H](NC(=O)CCCNC(=O)CN(CCN(CCN(CC(=O)O)CC(=O)O)CC(=O)O)CC(=O)O)CCNC(=O)CCCN(CC(N)=O)C(=O)[C@H](Cc2ccccc2)NC1=O [PTR 3341, In-DTPA-GABA-Dab*-Phe-Trp-(D)Trp-Lys-Thr-Phe-GlyC3*-NH2]
inhibition at 0.01 µM (SST-R2; [1]): 35% | inhibition at 0.1 µM (SST-R2; [2]): 76% | inhibition at 10 pM (SST-R2): -9.5% | inhibition at 0.0001 µM (SST-R2): -4.8% | inhibition at 0.001 µM (SST-R2): 12% | inhibition at 0.01 µM (SST-R2; [3]): 44% | inhibition at 0.1 µM (SST-R2; [4]): 76%

C[C@@H](O)[C@@H]1NC(=O)[C@H](CCCCN)NC(=O)[C@@H](Cc2c[nH]c3ccccc23)NC(=O)[C@H](Cc2c[nH]c3ccccc23)NC(=O)[C@H](Cc2ccccc2)NC(=O)[C@@H](NC(=O)CNC(=O)CN(CCN(CCN(CC(=O)O)CC(=O)O)CC(=O)O)CC(=O)O)CCNC(=O)CCCN(CC(N)=O)C(=O)[C@H](Cc2ccccc2)NC1=O [PTR 3319, In-DTPA-Gly-Dab*-Phe-Trp-(D)Trp-Lys-Thr-Phe-GlyC3*-NH2]
inhibition at 0.01 µM (SST-R2; [1]): 65% | inhibition at 0.1 µM (SST-R2; [2]): 83% | inhibition at 10 pM (SST-R2): -8.5% | inhibition at 0.0001 µM (SST-R2): -0.67% | inhibition at 0.001 µM (SST-R2): 30% | inhibition at 0.01 µM (SST-R2; [3]): 57% | inhibition at 0.1 µM (SST-R2; [4]): 86%

In-DTPA-GABA-Phe(C3**)-Cys*-Phe-(D)Trp-Lys-Thr-Cys*-Phe(N3 **)-NH2 [PTR 3351]
SRIF Inhibited (%) 10 nM (SST-R2; 10 nM, SST-R2): 5% | SRIF Inhibited (%) 100 nM (SST-R2; 100 nM, SST-R2): 53%

C[C@@H](O)[C@@H]1NC(=O)[C@H](CCCCN)NC(=O)[C@@H](Cc2c[nH]c3ccccc23)NC(=O)[C@H](Cc2c[nH]c3ccccc23)NC(=O)[C@H](Cc2ccccc2)NC(=O)[C@@H](NC(=O)CCNC(=O)CN(CCN(CCN(CC(=O)O)CC(=O)O)CC(=O)O)CC(=O)O)CCNC(=O)CCCN(CC(N)=O)C(=O)[C@H](Cc2ccccc2)NC1=O [PTR 3339, In-DTPA-b-Ala-Dab*-Phe-Trp-(D)Trp-Lys-Thr-Phe-GlyC3*-NH2]
inhibition at 0.01 µM (SST-R2; [1]): 27% | inhibition at 0.1 µM (SST-R2; [2]): 69% | inhibition at 10 pM (SST-R2): -11% | inhibition at 0.0001 µM (SST-R2): 3% | inhibition at 0.001 µM (SST-R2): 17% | inhibition at 0.01 µM (SST-R2; [3]): 52% | inhibition at 0.1 µM (SST-R2; [4]): 78%

C[C@@H](O)[C@@H]1NC(=O)[C@H](CCCCN)NC(=O)[C@@H](Cc2c[nH]c3ccccc23)NC(=O)[C@H](Cc2ccccc2)NC(=O)[C@@H]2CSSC[C@H](NC1=O)C(=O)N([C@@H](Cc1ccccc1)C(N)=O)CCCNC(=O)CCCN(C(=O)CNC(=O)CNC(=O)CNC(=O)CS)[C@@H](Cc1ccccc1)C(=O)N2 [PTR 3261, MAG3-PheC3-Cys-Phe-(D)Trp-Lys-Thr-Cys-PheN3-NH2]
IC50 (human cloned SST-R2; human cloned SST-R2, 95% confidence interval given, read-out: IC50 calculated from the binding results of Table 3): 119 nM | IC50 (human cloned SST-R2; [5]): 100 nM | Total Bound (3-[125I]tyrosyl11)somatostatin-14 (cpm), Run 1 (human cloned SST-R2; peptide conc. 10 nM): 8335 cpm | Total Bound (3-[125I]tyrosyl11)somatostatin-14 (cpm), Run 2 (human cloned SST-R2; peptide conc. 10 nM): 8820 cpm | Total Bound (3-[125I]tyrosyl11)somatostatin-14 (cpm), Run 3 (human cloned SST-R2; peptide conc. 10 nM): 8098 cpm | Total Bound (3-[125I]tyrosyl11)somatostatin-14 (cpm), Run 1 (human cloned SST-R2; peptide conc. 100 nM): 5398 cpm | Total Bound (3-[125I]tyrosyl11)somatostatin-14 (cpm), Run 2 (human cloned SST-R2; peptide conc. 100 nM): 5328 cpm | Total Bound (3-[125I]tyrosyl11)somatostatin-14 (cpm), Run 3 (human cloned SST-R2; peptide conc. 100 nM): 5679 cpm | Total Bound (3-[125I]tyrosyl11)somatostatin-14 (cpm), Run 1 (human cloned SST-R2; peptide conc. 1000 nM): 1941 cpm | Total Bound (3-[125I]tyrosyl11)somatostatin-14 (cpm), Run 2 (human cloned SST-R2; peptide conc. 1000 nM): 3169 cpm | Total Bound (3-[125I]tyrosyl11)somatostatin-14 (cpm), Run 3 (human cloned SST-R2; peptide conc. 1000 nM): 2024 cpm | Total Bound (3-[125I]tyrosyl11)somatostatin-14 (cpm), Run 1 (human cloned SST-R2; peptide conc. 10000 nM): 917 cpm | Total Bound (3-[125I]tyrosyl11)somatostatin-14 (cpm), Run 2 (human cloned SST-R2; peptide conc. 10000 nM): 1106 cpm | Total Bound (3-[125I]tyrosyl11)somatostatin-14 (cpm), Run 3 (human cloned SST-R2; peptide conc. 10000 nM): 2281 cpm

In-DTPA-3-aminomethylbenzoic acid-Phe(C3**)-Cys*-Phe-(D)Trp-Lys-Thr-Cys*-Phe(N3**)-NH2 [PTR 3355]
SRIF Inhibited (%) 10 nM (SST-R2; 10 nM, SST-R2): 8% | SRIF Inhibited (%) 100 nM (SST-R2; 100 nM, SST-R2): 34%
